Results on two compounds are retold here after publication PMC5494507, “γ‐Secretase inhibitors in cancer clinical trials are pharmacologically and functionally distinct” (EMBO Molecular Medicine, 2017).

The subject of assay [1] is rAPPC100sub and rNOTCH1‐4subs. The assay is described as follows: Cell-free γ-secretase assay, rAPPC100sub and rNOTCH1-4subs (IP-MS). The assay is classed as biochemical, human. Conditions: 25 nM. The protocol: cDNAs encoding NOTCH1, NOTCH2, NOTCH3, NOTCH4, CD44, and VEGFR1 γ‐secretase substrates were generated by gene synthesis conducted by Genscript (Piscataway, NJ, USA). The general design of the constructs was similar to a recombinant substrate (APP C100) that has been used by our group and others to assay Aβ production in in vitro γ‐secretase assays. All constructs contain an NH2‐terminal amyloid β peptide (Aβ) epitope tag followed by the juxtamembrane region (JMD) of the given substrate and a FLAG tag ([…]) at the COOH‐terminal. A schematic representation of the substrates is provided in Fig 1A, and sequences of the cDNAs and the proteins are provided in Appendix Fig S5. For clarity, these substrates are referred to as recombinant substrates (e.g., Notch1 is rNOTCH1sub). Substrate cDNAs were cloned into pET21 (Novagen, Billerica, MA, USA) for expression in bacterial cells.
pET21 plasmids containing the substrate cDNAs were transformed into BL21 E. coli. cells. Overexpression was induced with 0.5 mM isopropyl β‐D‐1‐thiogalactopyranoside (IPTG). […]
Immunoprecipitation and mass spectrometry of Aβ and Aβ‐like peptides in cell‐free assay or conditioned media were performed as previously described (Ran et al, 2014). […] Samples were analyzed using a Bruker Microflex LRF‐MALDI‐TOF mass spectrometer.

In assay [2] the test system is MDA‐MB‐231 and MDA‐MB‐468 mammospheres. The experiment in a line: Secondary mammosphere formation / limiting dilution assay and CD44+CD24low flow cytometry. The assay is classed as cell-based. Here is the method: Suppression of breast cancer stem cells is thought to be a key mechanism of action for the anti‐tumor activity of GSIs in breast cancer models and in patient‐derived mammospheres (Takebe et al, 2015). […] Stem‐like cells are enriched in secondary mammospheres, but their number declines after four to five passages (Dontu et al, 2003; Dey et al, 2009). Therefore, we compared the GSIs in a secondary mammosphere formation assay at 1, 5, and 10 μM concentrations (Fig 7A and B for 10 μM and Appendix Fig S4 for 1 and 5 μM). We separately counted large mammospheres (> 500 μm in diameter) and small mammospheres (100–500 μm in diameter).
For limiting dilution assay, we used two distinct TNBC cell lines. MDA‐MB‐231 is molecularly “Mesenchymal”, PTEN wild type. MDA‐MB‐468 (ATCC, Manassas, VA) is molecularly “Basal‐like” and PTEN null. GSI‐treated (1, 5, and 10 μM twice/week, for 1 week) mammospheres were dissociated by trypsinization, and equal numbers of viable cells were re‐plated at clonal density (1,000, 100, and 10 cells) without GSIs. After 7‐day incubation, large mammospheres (> 500 μm) and small mammospheres (100–500 μm) were counted manually using a Nikon Eclipse Microscope. Next, we investigated whether PF‐3084014 selectively affected cancer stem‐like cells (CSCs) using both MDA‐MB‐231 and MDA‐MB‐468 cell lines. Mammospheres were treated with increasing concentration of PF‐3084014 for 1 week, and CSCs (CD44^+CD24^low) (Azzam et al, 2013) were analyzed by flow cytometry using anti‐human PE‐CD44 (Clone G44‐26) and FITC‐CD24 (Clone ML5) (BD Biosciences) antibody.

Regarding `CN1C(=O)[C@@H](NC(=O)[C@H](CCC(F)(F)F)[C@H](CCC(F)(F)F)C(N)=O)N=C(c2ccccc2)c2ccccc21` [BMS‐906024], the “cleavage of the rAPPC100sub and rNOTCH1‐4subs” value in assay [1] is on record as “completely blocked cleavage”.

On to `CCC[C@H](N[C@H]1CCc2cc(F)cc(F)c2C1)C(=O)Nc1cn(C(C)(C)CNCC(C)(C)C)cn1` [PF‐3084014], for which the “absolute cell counts of mammospheres” value in assay [2] (5 and 10 μM, both cell lines) is given as “significantly more potent than the other compounds”. In addition, the “percentage of CD44+CD24low cells” value in assay [2] (all concentrations tested, flow cytometry) was “decrease in percentage”. Moreover, in assay [2] (both cell lines, 1 week treatment), the “total cell number and CSC fraction” value is “decreased the total cell number and the CSC fraction”. Also, the “absolute numbers of CD44+CD24low cells” value in assay [2] (flow cytometry) is reported as “dose‐dependent decrease”.
